# Experimental data as given in patent US7101878B1 (Agouron Pharmaceuticals, Inc., priority 1998, dated 2006).
# Target: T1, mouse GnRH receptor (Mus musculus, UniProt Q01776)
# T1 construct: expressed in transfected cells; host or cells: 293 cells
# T1 sequence (Q01776 1-327): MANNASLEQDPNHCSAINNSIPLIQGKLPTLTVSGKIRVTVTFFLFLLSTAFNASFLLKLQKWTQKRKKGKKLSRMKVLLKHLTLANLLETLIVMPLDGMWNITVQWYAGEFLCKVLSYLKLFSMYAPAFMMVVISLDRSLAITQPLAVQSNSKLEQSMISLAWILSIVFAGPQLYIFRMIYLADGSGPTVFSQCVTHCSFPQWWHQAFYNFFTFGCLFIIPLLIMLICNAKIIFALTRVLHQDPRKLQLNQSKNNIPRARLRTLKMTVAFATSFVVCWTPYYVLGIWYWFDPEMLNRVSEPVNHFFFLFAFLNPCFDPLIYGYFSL
# Experiment: Radioligand binding, 125I-GnRH-A, 293 cells expressing mouse GnRH receptors
# Details: 10 uM; read-out: % Inhib. @ 10 uM mGnRH
# In short: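 Bound label captured on 0.1% polyethyleneimine-treated GF/C filters, washed three times with PBS, counted. IC50 derived; identical set-up for every species.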
row,SMILES,inhibition at 10 µM
1,Cc1cc2c(cc1Cc1ccc(C(=O)N(Cc3cccnc3)Cc3cccnc3)o1)C(C)(C)CCC2(C)C [drawing 1538],101%
2,Cc1cc2c(cc1Cc1ccc(C(=O)N(Cc3ccc(O)cc3)C3CCN(Cc4ccccc4)CC3)o1)C(C)(C)CCC2(C)C,28%
3,Cc1cc2c(cc1Cc1ccc(C(=O)N(CCC(c3ccccc3)c3ccccc3)CC3CCCCC3)o1)C(C)(C)CCC2(C)C,31%
4,Cc1cc2c(cc1Cc1ccc(C(=O)N(C)CCC3OCCO3)o1)C(C)(C)CCC2(C)C [drawing 1583],96%
5,COC(CCCNC(=O)c1ccc(Cc2cc3c(cc2C)C(C)(C)CCC3(C)C)o1)OC [drawing 1383],101%
6,Cc1cc2c(cc1Cc1ccc(C(=O)N(Cc3ccco3)C3CC(=O)N(Cc4ccccc4)C3=O)o1)C(C)(C)CCC2(C)C (centres unmarked),20%
7,Cc1cc2c(cc1Cc1ccc(C(=O)N(Cc3cccnc3)Cc3ccoc3)o1)C(C)(C)CCC2(C)C,99%
8,C=CCN(CC=C)C(=O)c1ccc(Cc2cc3c(cc2C)C(C)(C)CCC3(C)C)o1 [drawing 1440],83%
9,CCOC(CNC(=O)c1ccc(Cc2cc3c(cc2C)C(C)(C)CCC3(C)C)o1)OCC,100%
10,CCCN(Cc1ccc([N+](=O)[O-])cc1)C(=O)c1ccc(Cc2cc3c(cc2C)C(C)(C)CCC3(C)C)o1 [drawing 1480],66%
11,CCN(CC)CCCN(C)C(=O)c1ccc(Cc2cc3c(cc2C)C(C)(C)CCC3(C)C)o1,92%
12,COc1cc2c(cc1OC)C(CC#N)N(C(=O)c1ccc(Cc3cc4c(cc3C)C(C)(C)CCC4(C)C)o1)CC2 (centres unmarked) [drawing 1582],52%
13,CC(=O)N(C)C1CCN(C(=O)c2ccc(Cc3cc4c(cc3C)C(C)(C)CCC4(C)C)o2)C1 (centres unmarked) [drawing 1441],74%
14,CCN(CC)CCCC(C)NC(=O)c1ccc(Cc2cc3c(cc2C)C(C)(C)CCC3(C)C)o1 (centres unmarked),99%
15,Cc1cc2c(cc1Cc1ccc(C(=O)N(Cc3cccc(Oc4cccc(C(F)(F)F)c4)c3)CC(C)(C)CN(C)C)o1)C(C)(C)CCC2(C)C,89%
16,Cc1cc2c(cc1Cc1ccc(C(=O)N3CCN(c4ccc(OCc5ccccc5)cc4)CC3)o1)C(C)(C)CCC2(C)C,44%
17,Cc1cc2c(cc1Cc1ccc(C(=O)NC(C)(C)C(=O)OC(C)(C)C)o1)C(C)(C)CCC2(C)C,75%
18,CCN(CC)CCN(C)C(=O)c1ccc(Cc2cc3c(cc2C)C(C)(C)CCC3(C)C)o1 [drawing 1428],68%
19,C=CCN(C(=O)c1ccc(Cc2cc3c(cc2C)C(C)(C)CCC3(C)C)o1)C1CCCCC1,65%

# More lines, now with the values ahead:
row,inhibition at 10 µM,SMILES
1,72%,Cc1cc2c(cc1Cc1ccc(C(=O)N3CCC(O)(c4ccccc4)CC3)o1)C(C)(C)CCC2(C)C
2,74%,Cc1cc2c(cc1Cc1ccc(C(=O)N(CCC#N)Cc3ccccc3)o1)C(C)(C)CCC2(C)C
3,103%,Cc1cc2c(cc1Cc1ccc(C(=O)N(CCN(C)C)Cc3cccc4ccccc34)o1)C(C)(C)CCC2(C)C [drawing 1489]
4,103%,CCCOCCNC(=O)c1ccc(Cc2cc3c(cc2C)C(C)(C)CCC3(C)C)o1 [drawing 1590]
5,94%,Cc1cc2c(cc1Cc1ccc(C(=O)N(Cc3cccnc3)CC3CC=CCC3)o1)C(C)(C)CCC2(C)C (centres unmarked) [drawing 1318]
6,89%,CCC(CO)NC(=O)c1ccc(Cc2cc3c(cc2C)C(C)(C)CCC3(C)C)o1 (centres unmarked) [drawing 1481]
7,52%,Cc1ccc(N2CCN(C(=O)c3ccc(Cc4cc5c(cc4C)C(C)(C)CCC5(C)C)o3)CC2)c(C)c1 [drawing 1455]
8,86%,CCN(Cc1ccccc1F)C(=O)c1ccc(Cc2cc3c(cc2C)C(C)(C)CCC3(C)C)o1
9,100%,CCCN(CCc1ccccn1)C(=O)c1ccc(Cc2cc3c(cc2C)C(C)(C)CCC3(C)C)o1 [drawing 1297]
10,73%,Cc1ccc(N2CCN(C(=O)c3ccc(Cc4cc5c(cc4C)C(C)(C)CCC5(C)C)o3)CC2C)cc1 (centres unmarked) [drawing 1276]
11,59%,Cc1cc2c(cc1Cc1ccc(C(=O)N3CCC(C(=O)c4ccccc4)CC3)o1)C(C)(C)CCC2(C)C [drawing 1495]
12,92%,Cc1cc2c(cc1Cc1ccc(C(=O)NC(C)CN(C)C)o1)C(C)(C)CCC2(C)C (centres unmarked) [drawing 1584]
13,58%,Cc1cc2c(cc1Cc1ccc(C(=O)NC(C(C)C)C(C)C)o1)C(C)(C)CCC2(C)C
14,91%,COCC(C)NC(=O)c1ccc(Cc2cc3c(cc2C)C(C)(C)CCC3(C)C)o1 (centres unmarked) [drawing 1454]
15,57%,Cc1cc2c(cc1Cc1ccc(C(=O)NC3CCc4ccccc43)o1)C(C)(C)CCC2(C)C (centres unmarked) [drawing 1375]
16,93%,Cc1cc2c(cc1Cc1ccc(C(=O)N3CCC[C@H]3CO)o1)C(C)(C)CCC2(C)C
17,97%,COC(=O)C1CCCN1C(=O)c1ccc(Cc2cc3c(cc2C)C(C)(C)CCC3(C)C)o1 (centres unmarked) [drawing 1298]
18,91%,Cc1cc2c(cc1Cc1ccc(C(=O)N3CCN(C(C)c4ccccc4)CC3)o1)C(C)(C)CCC2(C)C (centres unmarked)
19,28%,Cc1cc2c(cc1Cc1ccc(C(=O)NC(C)c3cccc4ccccc34)o1)C(C)(C)CCC2(C)C (centres unmarked)

# Same assay, conditions: 1 h, substrate remaining; 10 uM compound; closer to zero = closer to 100% inhibition; read-out: S%R 10 uM mGnRHR
row,SMILES,remaining activity at 10 µM
1,CCCCN(CCCC)CCCNC(=O)c1ccc(Cc2cc3c(cc2C)C(C)(C)CCC3(C)C)o1 [Compound 692],-2%
2,Cc1cc2c(cc1Cc1ccc(C(=O)N3CCC(N4CCCC4)CC3)o1)C(C)(C)CCC2(C)C [Compound 588],4%
3,Cc1cc2c(cc1Cc1ccc(C(=O)N3CCN(C(=O)c4ccco4)CC3)o1)C(C)(C)CCC2(C)C [Compound 694],11%
4,Cc1cc2c(cc1Cc1ccc(C(=O)NCC(C)(C)CN(C)C)o1)C(C)(C)CCC2(C)C [Compound 620],3%
5,CCN(CC)CCNC(=O)c1ccc(Cc2cc3c(cc2C)C(C)(C)CCC3(C)C)o1 [Compound 615],7%
6,Cc1cc2c(cc1Cc1ccc(C(=O)N3CCN(CCOCCO)CC3)o1)C(C)(C)CCC2(C)C [Compound 686],37%
7,Cc1cc2c(cc1Cc1ccc(C(=O)NCCNCCN3CCOCC3)o1)C(C)(C)CCC2(C)C [Compound 465],32%
8,CCOC(=O)CCNC(=O)c1ccc(Cc2cc3c(cc2C)C(C)(C)CCC3(C)C)o1 [Compound 684],2%
9,Cc1cc2c(cc1Cc1ccc(C(=O)N(Cc3ccc(C(C)C)cc3)Cc3cccnc3)o1)C(C)(C)CCC2(C)C [Compound 547],24%
10,Cc1cc2c(cc1Cc1ccc(C(=O)N3CCC(CCCC4CCN(CCO)CC4)CC3)o1)C(C)(C)CCC2(C)C [Compound 600],-4%
11,COc1cc(CNC(=O)c2ccc(Cc3cc4c(cc3C)C(C)(C)CCC4(C)C)o2)cc(OC)c1OC [Compound 502],-2%
12,Cc1cc2c(cc1Cc1ccc(C(=O)NC(C)(C)CC(C)(C)C)o1)C(C)(C)CCC2(C)C [Compound 654],34%
13,Cc1cc2c(cc1Cc1ccc(C(=O)NCCCN(C)CCCN)o1)C(C)(C)CCC2(C)C [Compound 496],-6%

# Next, values leading:
row,remaining activity at 10 µM,SMILES
1,31%,Cc1cc2c(cc1Cc1ccc(C(=O)N3CC=CCC3)o1)C(C)(C)CCC2(C)C [Compound 543]
2,23%,CC[C@H](C)C(CO)NC(=O)c1ccc(Cc2cc3c(cc2C)C(C)(C)CCC3(C)C)o1 (some centres unmarked) [Compound 683]
3,16%,Cc1cc2c(cc1Cc1ccc(C(=O)NCCC3=CCCCC3)o1)C(C)(C)CCC2(C)C [Compound 594]
4,4%,Cc1cc2c(cc1Cc1ccc(C(=O)NCCCO)o1)C(C)(C)CCC2(C)C [Compound 531]
5,9%,Cc1cc2c(cc1Cc1ccc(C(=O)N(CCC#N)Cc3cccnc3)o1)C(C)(C)CCC2(C)C [Compound 541]
6,-4%,Cc1cc2c(cc1Cc1ccc(C(=O)NCc3nc4ccccc4[nH]3)o1)C(C)(C)CCC2(C)C [Compound 500]
7,34%,Cc1cc2c(cc1Cc1ccc(C(=O)NCCc3ccc([N+](=O)[O-])cc3)o1)C(C)(C)CCC2(C)C [Compound 482]
8,24%,Cc1cc2c(cc1Cc1ccc(C(=O)NC(CO)CC3CCCCC3)o1)C(C)(C)CCC2(C)C (centres unmarked) [Compound 558]
9,39%,Cc1cc2c(cc1Cc1ccc(C(=O)N(CCc3ccccc3)Cc3ccoc3)o1)C(C)(C)CCC2(C)C [Compound 667]
10,43%,Cc1cc2c(cc1Cc1ccc(C(=O)N3CCN(c4cccc(C)c4C)CC3)o1)C(C)(C)CCC2(C)C [Compound 581]
11,-4%,Cc1cc2c(cc1Cc1ccc(C(=O)NCCN3CCOCC3)o1)C(C)(C)CCC2(C)C [Compound 523]
12,47%,Cc1cc2c(cc1Cc1ccc(C(=O)NCCS)o1)C(C)(C)CCC2(C)C [Compound 609]
13,-3%,Cc1cc2c(cc1Cc1ccc(C(=O)NCc3ccccn3)o1)C(C)(C)CCC2(C)C [Compound 501]
14,-4%,Cc1cc2c(cc1Cc1ccc(C(=O)NCCc3cccs3)o1)C(C)(C)CCC2(C)C [Compound 471]
15,19%,Cc1cc2c(cc1Cc1ccc(C(=O)NCCc3ccc(Cl)cc3)o1)C(C)(C)CCC2(C)C [Compound 642]
16,0%,CCN1CC(N(Cc2ccccc2C#N)C(=O)c2ccc(Cc3cc4c(cc3C)C(C)(C)CCC4(C)C)o2)CN1CC [Compound 646]

# Same assay, conditions: read-out: % Inhib. @ 10 uM mGnRH
row,SMILES,inhibition at 10 µM
1,Cc1cc2c(cc1Cc1ccc(C(=O)N[C@H]3CN4CCC3CC4)o1)C(C)(C)CCC2(C)C,12%
